The text below walks through data of patent US5985824A, “Methods and compositions for treating cystic fibrosis” (priority 1997, dated 1999).

SMILES strings stand for the structures. “Also recorded” adds a separate entry of the source.

For one series, the system named is ΔF508-CFTR (CFT1 cells). The experiment in a line: SPQ assay, cAMP-stimulated Cl- channel activity, CFT1 cells. The class given is cell-based, human. On the procedure:
The cAMP-dependent CFTR Cl^- channel activity was assessed using the halide-sensitive fluorophore 6-methoxy-N-(3-sulfopropyl)-quinolinium (SPQ) essentially as described previously (Cheng et al., (1995), supra.; Marshall et al., supra.). Briefly, the cells were treated with different amounts of DSG for the times specified. At the end of the treatment period, the cells were loaded with SPQ by hypotonic shock for 4 min at room temperature. SPQ fluorescence initially was quenched by incubating the cells for up to 30 min in a NaI buffer (135 mM NaI, 2.4 mM K2 HPO4, 0.6 mM KH2 PO4, 1 mM MgSO4, 1 mM CaSO4, 10 mM dextrose, and 10 mM N-2 hydroxyethylpiperazine-N'2-ethanesulfonic acid, pH 7.4). After measuring the baseline fluorescence (Fo) for 2 min., the NaI solution was replaced with one containing 135 mM NaNO3, and fluorescence was measured for another 16 min. […]
An increase in halide permeability is reflected by a more rapid increase in SPQ fluorescence. […] Differences in absolute levels reflect quantitative differences between groups in SPQ loading, size of cells, or number of cells studied. The data are presented as means± SE of fluorescence at time t (Ft) minus the baseline fluorescence (Fo, the average fluorescence measured in the presence of I^- for 2 min. before ion substitution) and are representative of results obtained under each condition. […]

The test system of a further series is immune responses. To be noted: T-cell dependent assays and models; cited from earlier work.
Series [1] can be described thus: toxicity of DSG to C127-ΔF508-low cells. The class given is cell-based, murine. The following applies: mouse, read-out: concentrations toxic to the cells. An excerpt:
(§1) C127-ΔF508-low (mouse mammary tumor) is a recombinant cell line stably transfected with the cDNA encoding the mutant ΔF508-CFTR (Cheng et al. (1995), supra.; Marshall et al. (1994), J. Biol. Chem. 269: 2987-2995). […] C127-mock is a cell line that has been stably transfected with the backbone of the expression vector used to generate C127-ΔF508-low (Cheng et al. (1995), supra.). LLCPK1 -ΔF508 (pig kidney epithelial) is a recombinant cell line stably expressing low levels of the mutant ΔF508-CFTR protein (Marshall et al., supra.). The details of the generation, characterization and routine propagation of these cell lines has been described (Cheng et al. (1995), supra.; Marshall et al., supra.).
Cells were treated with up to 100 μg/ml of DSG for up to 72 h. Concentrations of DSG >50 μg/ml were toxic to most of the cell types tested. Since DSG is modified by polyamine oxidase present in fetal bovine serum (Tepper et al., supra.), cells were routinely replenished with fresh medium containing DSG and aminoguanidine every 24 h. As a control in some experiments, C127 cells were also treated with 5 mM sodium butyrate for 24 h. to enhance expression of ΔF508-CFTR (Cheng et al. (1995), supra.). As another control, cells were cultured at 23° C. for 24 to 48 h. to facilitate folding of the mutant ΔF508-CFTR at the ER.

Series [2] has as its system ΔF508-CFTR (C127-ΔF508-low cells). The series can be described thus: SPQ halide efflux assay, cAMP-stimulated Cl- channel activity, C127-ΔF508-low cells. The class given is cell-based. On the procedure:
The cAMP-dependent CFTR Cl^- channel activity was assessed using the halide-sensitive fluorophore 6-methoxy-N-(3-sulfopropyl)-quinolinium (SPQ) essentially as described previously (Cheng et al., (1995), supra.; Marshall et al., supra.). Briefly, the cells were treated with different amounts of DSG for the times specified. At the end of the treatment period, the cells were loaded with SPQ by hypotonic shock for 4 min at room temperature. SPQ fluorescence initially was quenched by incubating the cells for up to 30 min in a NaI buffer (135 mM NaI, 2.4 mM K2 HPO4, 0.6 mM KH2 PO4, 1 mM MgSO4, 1 mM CaSO4, 10 mM dextrose, and 10 mM N-2 hydroxyethylpiperazine-N'2-ethanesulfonic acid, pH 7.4). After measuring the baseline fluorescence (Fo) for 2 min., the NaI solution was replaced with one containing 135 mM NaNO3, and fluorescence was measured for another 16 min. Forskolin (20 μM) and 3-isobutyl-1-methyl-xanthine (IBMX) (100 μM) were added 5 min after the anion substitution to increase intracellular levels of cAMP.
An increase in halide permeability is reflected by a more rapid increase in SPQ fluorescence. It is the rate of change rather than the absolute change in signal that is the important variable in evaluating anion permeability. Differences in absolute levels reflect quantitative differences between groups in SPQ loading, size of cells, or number of cells studied. The data are presented as means± SE of fluorescence at time t (Ft) minus the baseline fluorescence (Fo, the average fluorescence measured in the presence of I^- for 2 min. before ion substitution) and are representative of results obtained under each condition.
For each experiment, between 50 to 100 cells were examined on a given day and studies under each condition were repeated on at least two days. For each experiment, the responses were compared with those obtained with control or untreated cells. […] Under the conditions specified above, control cells were unresponsive to added cAMP agonists. There was a broad spectrum in the rate of change in SPQ fluorescence observed with responsive cells. Normally, cells were scored as responsive if they generated a minimum of a […] change in the rate of increase in SPQ fluorescence following stimulation with cAMP agonists. Because the response was heterogenous, the data shown are for the 10% of cells in each experiment showing the greatest response.
A bovine-papilloma virus based eukaryotic expression vector (pBPV-CFTR-ΔF508) containing the gene for ΔF508 CFTR and neomycin resistance were transfected into C127 cells. The C127 cells are murine mammary cells which were obtained from ATCC (#CRL 1616). The expression of the mutant ΔF508 protein and neomycin was driven using a metallothionein promoter. Following transfection, clonal cells resistant to G418 were isolated and cells expressing the mutant ΔF508 protein were subsequently identified using antibodies specific for CFTR (mAb-13-1). The cells expressing the mutant ΔF508 CFTR protein were maintained in Dulbecco's modified eagle media (DMEM) supplemented with glutamine and fetal calf serum.
as §1
Cells were treated with up to 100 μg/ml of DSG for up to 72 h. Concentrations of DSG >50 μg/ml were toxic to most of the cell types tested. […]

With `N=C(N)NCCCCCCC(=O)NC(O)C(=O)NCCCCNCCCN` (stereo not drawn) [DSG, deoxyspergualin], the “cAMP-stimulated Cl- channel activity, in words” value in the series with ΔF508-CFTR (CFT1 cells) is “very similar results”. In addition, the “immunosuppressive activity, in words” value in the series on immune responses is given as “potent immunosuppressive activity”. Also, the MCC at 72 h in series [1] was over 50 µg/mL. In addition, the “response in mock transfected cells” value in series [2] (C127-mock cells, DSG treated) is recorded as “No response was observed”. For the same molecule, the “cells generating a measurable response” value in series [2] (C127-ΔF508-low cells, SPQ, average of 5 experiments) is “Approximately 17%”. Also, the “cAMP-stimulated change in SPQ fluorescence / Cl- channel activity, in words” value in series [2] (C127-ΔF508-low cells, DSG 10-100 μg/ml, sodium butyrate 5 mM 24 h, spermidine 5 μg/ml 72 h) was “marginal; also recorded: resulted in the appearance of functional cAMP-stimulated CFTR Cl^- channel activity at the cell surface; also recorded: gave a rapid change in fluorescence following stimulation with forskolin; also recorded: More optimal responses were observed in cells that were treated with lower concentrations of DSG compared to higher concentrations of DSG; also recorded: restored cAMP-stimulated anion efflux albeit to a lesser extent than was observed with sodium butyrate treatment; also recorded: less than that obtained with sodium butyrate”.
